For assay [1], the system named is mice. Kind of assay: mouse-tail suspension test. It is filed as in vivo. The source says:
(§1) 1.1 Drug testing and reagents: The capsules pharmaceutical compositions for the treatment of depression in form of obtained in Example 2 compared with fluoxetine hydrochloride. 1.2 Animals: 20 male and 20 female mice provided by the Experimental Animal Center; average body mass of 18-22 g. 1.3 Instruments: Mouse-tail suspension device (a wooden board of about 1 meter in length, fixed onto a desktop with a horizontal distance of about 15 cm), swimming model device (a glass tank with a height of 30 cm, a diameter of 14 cm, a water depth of 10 cm, and temperature of 25° C.), and homemade open box. 1.4 Grouping: The mice were fed for one week, during which time the mice feed and drink freely. The mice were randomly divided into four groups of control group, depression capsule low-dose group (hereinafter referred to as the low-dose group), depression capsule high-dose group (hereinafter referred to as the high-dose group), the positive groups, 10 mice per group. […]
The mouse was suspended by its tail so that the tail was adhered (1 cm from the tail end of the mouse) to the horizontal plank of wooden board by tape with its head about 5 cm above the desktop. […] The test was performed in 1 h after last drug administration and the time of the mouse being immobile within last 4 min for 6 min period was recorded.

In assay [2] the test system is mice. Kind of assay: mouse forced swimming test. In kind it is in vivo. From the text:
1.1 Drug testing and reagents: The capsules pharmaceutical compositions for the treatment of depression in form of obtained in Example 2 compared with fluoxetine hydrochloride. 1.2 Animals: 20 male and 20 female mice provided by the Experimental Animal Center; average body mass of 18-22 g. 1.3 Instruments: Mouse-tail suspension device (a wooden board of about 1 meter in length, fixed onto a desktop with a horizontal distance of about 15 cm), swimming model device (a glass tank with a height of 30 cm, a diameter of 14 cm, a water depth of 10 cm, and temperature of 25° C.), and homemade open box. 1.4 Grouping: The mice were fed for one week, during which time the mice feed and drink freely. The mice were randomly divided into four groups of control group, depression capsule low-dose group (hereinafter referred to as the low-dose group), depression capsule high-dose group (hereinafter referred to as the high-dose group), the positive groups, 10 mice per group. 1.5 Drug administration: The control group was given saline daily at 0.2 ml/10 g; the positive control group was given fluoxetine hydrochloride 2.4 mg/kg; the low-dose group was given depression capsules 1.05 g/kg; and the high-dose group was given depression capsules 4.20 g/kg. The route of administration was directly into the stomach.
1.6.2 Mouse forced swimming test: Refer to method by Prosolt et al. […]

The test system of assay [3] is mice. Kind of assay: opening test (independent activity, open box). In kind it is in vivo, mouse.
Source text: as §1
A wooden box was provided with 36 cm×36 cm×27 cm, the bottom of which is divided into 25 squares. The test was performed in 1 h after last drug administration, and the number of the mouse crossing the grids and vertical climbing within last 3 min for 5 min period was recorded.

Setting [4] is: positive group 2.4 mg/kg, P<0.01.

Counter-ions that a name gives are not always drawn.

For the compound `CNCCC(Oc1ccc(C(F)(F)F)cc1)c1ccccc1` (stereo not drawn) [fluoxetine hydrochloride], in the assay on mice [1] (mice, positive control group 0.0024 g/kg (2.4 mg/kg), directly into the stomach, 1 h after last administration, last 4 min of 6 min, x ± s, n = 10), the “Immobile time in the mouse-tail suspension test” value came to 73 s. The “effect on immobile time in mouse-tail suspension test compared with the control group” value with mice [1] (setting [4]) is on record as “highly significant difference”. The “Immobile time in mouse forced swimming test” value with mice [2] (mice, positive control group 0.0024 g/kg (2.4 mg/kg), directly into the stomach, 1 h after last administration, last 4 min of 6 min, water 25° C., x ± s, n = 10) is given as 83.5 s. For the same compound, the “effect on immobile time in mouse forced swimming test compared with the control group” value in the assay on mice [2] (setting [4]) is “highly significant difference”. Further, the “the number of squares crossed by mouse” value with mice [3] (mice, positive control group 0.0024 g/kg (2.4 mg/kg), directly into the stomach, 1 h after last administration, last 3 min of 5 min, ±s, n = 10) is reported as 43.9 ± 13.3. For the same compound, in the assay with mice [3] (positive group 2.4 mg/kg, P>0.05), the “effect on independent activity in the opening test compared with the control group” value is “no significant difference”.

Values taken from patent US20180161386A1, “PHARMACEUTICAL COMPOSITION FOR TREATMENT OF DEPRESSION AND PREPARATION METHOD THEREOF” (THISHERB HEALTH PTY LTD, priority 2015, published 2018).
